Experimental data from PubChem BioAssay AID1996.
≈ marks a conversion by molar mass, not a printed value.

Conditions: buffer; pH 7.4; 200.0 µM

| SMILES | solubility kinetic [µg/mL] |
| --- | --- |
| O=C(NCCN1CCOCC1)c1cc(Br)ccc1Cl | > 52.1 |
| CCN1C(=O)CC(c2cccnc2)=Nc2ccccc21 | > 39.8 |
| COc1ccccc1CN1CCNC(=O)C1CC(=O)O (centres undefined) | > 41.7 |
| COc1ccc2ccccc2c1CNC(C)c1ccccc1.O=C(O)C(=O)O (centres undefined) | > 57.2 |
| COC(=O)CSc1ncnc2c1sc1nc3c(cc12)COC(C)(C)C3 | 1.6 (≈ 4.26 µM) |
| CC(=O)c1cccc(NC(=O)c2sc(Cl)nc2C)c1 | > 44.2 |
| COc1cc2c(cc1OC)CN(C(=O)CSc1ccccc1C)CC2 | > 53.6 |
| COc1ccc(CNc2ncnc3cc(OC)c(OC)cc23)cc1OC | > 53.3 |
| CC(C)CCN1C(=O)c2ccc(C(=O)OCC(=O)N(CC(C)C)C3CCS(=O)(=O)C3)cc2C1=O (centres undefined) | 46.8 (≈ 95 µM) |
| O=C(CSc1nc2ccccc2c(=O)[nH]1)Nc1ccccc1O | 3.8 (≈ 11.6 µM) |
| CCn1c(=S)[nH]c2cc(S(=O)(=O)N3CCOCC3)ccc21 | 34.2 (≈ 104 µM) |
| S=C(NCCc1ccc(Cl)cc1)NC1CCCCC1 | 4 (≈ 13.5 µM) |
| C=CCNC(=O)CN1CCC(c2nc3cc(C)c(C)cc3[nH]2)CC1 | > 49 |
| CN1C(C(=O)Nc2ccccn2)=C(O)c2ccccc2S1(=O)=O | > 49.7 |
| CCN(CC)CCn1c(C)nc2ccccc21.Cl | 40.6 |
| COc1ccc(C(=S)N2CCCC2)cc1Br | > 45 |
| COc1cc(/C=C/c2noc(-c3ccccc3O)n2)ccc1OC(C)=O | < 0.4 |
| Nc1cc(N)nc(SCC(=O)NCCC2=CCCCC2)n1 | > 46.1 |
| Cc1ccc(C2CC2/C(=N/O)c2ccc(F)cc2)cc1 (centres undefined) | 3.1 (≈ 11.5 µM) |
| Brc1cc(-c2ccccc2)nc(-c2ccccc2)n1 | < 0.3 |

| SMILES | solubility kinetic [µg/mL] |
| --- | --- |
| Cl.c1cc(CNC23CC4CC(CC(C4)C2)C3)ccn1 | > 47.3 |
| Cc1nnc(SCC(=O)N(C)C2CCCCC2)s1 | > 42.8 |
| c1ccc(-c2cc(N3CCCCC3)c3ccccc3n2)cc1 | < 0.3 |
| Cc1nc2ccccn2c1C(=O)NNC(=O)Nc1ccccc1 | > 46.4 |
| COc1ccc(CCNC(=O)Cc2ccc(Cl)cc2)cc1OC | > 50.1 |
| O=C(c1ccccc1Br)N1CCc2c([nH]c3ccccc23)C1 | 14.9 (≈ 41.9 µM) |
| CN(C)c1nc(N)ncc1-c1ccc(Oc2ccccc2)cc1 | < 0.2 |
| Cc1nc2nc(SCc3nc4ccccc4[nH]3)[nH]c2cc1Br | 1.1 (≈ 2.94 µM) |
| CCc1nc2ccccc2c(C(=O)OCc2nc3ccccc3c(=O)[nH]2)c1C | 14.5 (≈ 38.8 µM) |
| Cc1cccc(Nc2nc(N)nc(-c3oc4ccccc4c3C)n2)c1 | < 0.1 |
| Cc1ccccc1S(=O)(=O)Cc1ccc(C(=O)NC2CC2)o1 | > 47.9 |
| COc1cc2c(cc1OC)CN(CC(=O)NC(=O)NC1CCCCC1)CC2 | > 56.3 |
| CCn1ccc(C(=O)NCCCN2CCCC2=O)n1 | > 39.6 |
| Cc1ccc(N(CC(=O)N2CCc3ccccc3C2)S(C)(=O)=O)cc1 | > 53.8 |
| C=CCn1c(O)c(C(C)=Nc2cccc(C(=O)O)c2)c(=O)[nH]c1=O | > 49.4 |
| COc1ccc(CC2SC(=Nc3ccc(F)cc3)NC2=O)cc1 (centres undefined) | 2.3 (≈ 6.96 µM) |
| CNC(=O)c1c(NC(=O)C(C)C)sc2c1CCC2 | 36.5 (≈ 137 µM) |
| O=C(COC(=O)c1ccc([N+](=O)[O-])o1)Nc1ccc(F)cc1 | > 46.2 |
| COC(=O)c1cccc(NC(=O)c2ccccc2)c1 | 35.7 (≈ 140 µM) |
| O=C(COC(=O)c1cccnc1Cl)NCCc1ccc(F)cc1 | > 50.5 |

| SMILES | solubility kinetic [µg/mL] |
| --- | --- |
| O=C(CCn1c(=O)oc2ccccc21)NCCC1=CCCCC1 | > 47.2 |
| CNC(=S)Nc1cccc(S(=O)(=O)NCc2ccco2)c1 | > 48.8 |
| CCc1ccccc1NC(=O)CCS(=O)(=O)c1ccc(C)cc1 | > 49.7 |
| COc1ccc(CC(=O)OCC(=O)NC2CC2)cc1 | > 39.5 |
| O=C1C2C3C=CC(C4CC34)C2C(=O)N1c1cc(Cl)ccn1 (centres undefined) | 42.6 (≈ 142 µM) |
| Cc1cccc(NC(=O)COC(=O)c2cc3ccccc3oc2=O)c1 | < 0.7 |
| O=C1OC(CCl)CN1Cc1ccc([N+](=O)[O-])cc1 (centres undefined) | > 40.6 |
| Cc1ccc(/C=C/C(=O)O)cc1S(=O)(=O)N1CCCc2ccccc21 | > 53.6 |
| COC(=O)/C=C1\N/C(=N\c2nc(C)cc(C)n2)N(c2ccc(Cl)cc2)C1=O | 57.6 (≈ 149 µM) |
| O=C(O)CNS(=O)(=O)Cc1ccccc1 | 29 (≈ 126 µM) |
| S=C(NCc1ccccc1)NCc1ccccc1Cl | 28.4 (≈ 97.7 µM) |
| CCc1c(C)nc(N)c(C#N)c1-c1ccccc1 | 0.3 (≈ 1.26 µM) |
| CNC(=O)CSc1nc(SC)ns1 | > 35.3 |
| Cc1ccc(C(=O)NCCCc2ccccc2)c(Cl)c1 | 31.9 (≈ 111 µM) |
| C[C@@H]1CN(Cc2nc(-c3cccs3)no2)C[C@H](C)O1 | 38 (≈ 136 µM) |
| Cc1ccccc1C(=O)OCC(=O)Nc1cccc(S(=O)(=O)NC2=NCCC2)c1 | > 62.3 |
| CC(=O)Nc1ccc(Sc2ccccc2C(=O)O)c(C(=O)O)c1 | 42.3 (≈ 128 µM) |
| Cc1ccc(S(=O)(=O)N2CC(C(=O)O)Oc3ccccc32)cc1 (centres undefined) | > 50 |
| CCc1cnccc1CCC(=O)Nc1ccccc1C | 35.4 (≈ 132 µM) |
